Results: patent publication US20220306659A1, “COMPOUND INHIBITING AND INDUCING DEGRADATION OF EGFR AND ALK” (BEIJING TIDE PHARMACEUTICAL CO., LTD., priority 2019, published 2022)

Tests used:
[1] = biological target: Ba/F3(EGFR^Del19/T790M/C797S) cells (Homo sapiens, UniProt P00533, DEL746-750/T790M/C797S, cells depend on it); test: Assay of activity on Ba/F3 cells (CTG, 72 h); format: cell-based; conditions: read-out: IC50 (nM) Ba/F3 (EGFR^Del19/T790M/C797S)
Procedure: (§1) (2) A compound stock solution was prepared, and then diluted 3× to obtain a compound dilution. 30 nL of the compound dilution was added to a 384-well plate by Echo (Labcyte, Echo550). The cells were incubated in an incubator at 37° C. and 5% CO2 for 72 h.
(§2) The percent inhibition rate (% inhibition) was calculated by the following formula
(§3) LUMcmpd: Luminescence value of assay compound.
(§4) LUMpositive: Average LUM value of positive drug at a concentration of 10 μM.
(§5) LUMvehicle. Average LUM value of negative control group without drug treatment.
(§6) The nonlinear regression curve (dose response-variable slope) between the value of inhibition rate (%) and the logarithm of compound concentration was fitted with graphpad prism 8.0, the effect dose curve of compound was drawn, and the IC50 value was calculated.
(§7) Y=Bottom+(Top−Bottom)/(1+1^((LogIC50−X)*HillSlope))
(§8) X-axis: logarithm of compound concentration; Y axis: inhibition rate ([…]).

[2] = biological target: Ba/F3(EGFR^L858R/T790M/C797S) cells (Homo sapiens, UniProt P00533, T790M/C797S/L858R, cells depend on it); test: Assay of activity on Ba/F3 cells (CTG, 72 h); format: cell-based; conditions: read-out: IC50 (nM) Ba/F3 (EGFR^L858R/T790M/C797S)
Procedure: as §1, §2, §3, §4, §5, §6, §7, §8

Ba/F3(EGFR^L858R/T790M/C797S) cells, sequence (P00533 whole entry T790M/C797S/L858R): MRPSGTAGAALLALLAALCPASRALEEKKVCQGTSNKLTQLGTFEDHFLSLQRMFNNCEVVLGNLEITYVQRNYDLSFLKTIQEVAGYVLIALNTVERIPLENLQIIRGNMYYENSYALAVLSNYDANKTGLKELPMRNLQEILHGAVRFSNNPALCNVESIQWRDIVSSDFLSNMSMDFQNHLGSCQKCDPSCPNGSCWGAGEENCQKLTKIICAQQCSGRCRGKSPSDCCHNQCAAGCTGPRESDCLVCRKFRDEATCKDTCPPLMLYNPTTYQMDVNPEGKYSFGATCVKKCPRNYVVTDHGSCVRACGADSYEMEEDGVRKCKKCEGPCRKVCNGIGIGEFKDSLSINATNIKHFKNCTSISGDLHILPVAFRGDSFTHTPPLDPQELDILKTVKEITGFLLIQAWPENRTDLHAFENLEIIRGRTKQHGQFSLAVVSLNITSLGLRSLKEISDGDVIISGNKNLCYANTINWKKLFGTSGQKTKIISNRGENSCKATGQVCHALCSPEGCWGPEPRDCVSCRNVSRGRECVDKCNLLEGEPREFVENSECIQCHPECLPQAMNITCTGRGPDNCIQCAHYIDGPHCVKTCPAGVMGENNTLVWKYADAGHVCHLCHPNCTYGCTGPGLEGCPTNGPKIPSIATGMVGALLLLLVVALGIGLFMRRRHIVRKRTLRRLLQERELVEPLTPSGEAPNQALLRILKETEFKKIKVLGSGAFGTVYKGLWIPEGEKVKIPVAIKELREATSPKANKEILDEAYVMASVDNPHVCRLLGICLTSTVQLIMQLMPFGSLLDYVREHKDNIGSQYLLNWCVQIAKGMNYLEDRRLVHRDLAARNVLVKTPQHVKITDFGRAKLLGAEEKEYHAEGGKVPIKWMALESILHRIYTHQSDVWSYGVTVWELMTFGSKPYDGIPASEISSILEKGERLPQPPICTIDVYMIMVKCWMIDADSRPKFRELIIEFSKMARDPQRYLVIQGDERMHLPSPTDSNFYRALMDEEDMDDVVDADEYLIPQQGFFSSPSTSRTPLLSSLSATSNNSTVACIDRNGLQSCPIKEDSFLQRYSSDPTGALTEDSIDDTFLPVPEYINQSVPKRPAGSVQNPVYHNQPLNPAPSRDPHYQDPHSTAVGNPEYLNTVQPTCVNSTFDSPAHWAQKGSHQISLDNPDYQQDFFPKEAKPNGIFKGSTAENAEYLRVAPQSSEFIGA
Ba/F3(EGFR^Del19/T790M/C797S) cells, sequence (P00533 with tags, fused parts or gaps DEL746-750/T790M/C797S): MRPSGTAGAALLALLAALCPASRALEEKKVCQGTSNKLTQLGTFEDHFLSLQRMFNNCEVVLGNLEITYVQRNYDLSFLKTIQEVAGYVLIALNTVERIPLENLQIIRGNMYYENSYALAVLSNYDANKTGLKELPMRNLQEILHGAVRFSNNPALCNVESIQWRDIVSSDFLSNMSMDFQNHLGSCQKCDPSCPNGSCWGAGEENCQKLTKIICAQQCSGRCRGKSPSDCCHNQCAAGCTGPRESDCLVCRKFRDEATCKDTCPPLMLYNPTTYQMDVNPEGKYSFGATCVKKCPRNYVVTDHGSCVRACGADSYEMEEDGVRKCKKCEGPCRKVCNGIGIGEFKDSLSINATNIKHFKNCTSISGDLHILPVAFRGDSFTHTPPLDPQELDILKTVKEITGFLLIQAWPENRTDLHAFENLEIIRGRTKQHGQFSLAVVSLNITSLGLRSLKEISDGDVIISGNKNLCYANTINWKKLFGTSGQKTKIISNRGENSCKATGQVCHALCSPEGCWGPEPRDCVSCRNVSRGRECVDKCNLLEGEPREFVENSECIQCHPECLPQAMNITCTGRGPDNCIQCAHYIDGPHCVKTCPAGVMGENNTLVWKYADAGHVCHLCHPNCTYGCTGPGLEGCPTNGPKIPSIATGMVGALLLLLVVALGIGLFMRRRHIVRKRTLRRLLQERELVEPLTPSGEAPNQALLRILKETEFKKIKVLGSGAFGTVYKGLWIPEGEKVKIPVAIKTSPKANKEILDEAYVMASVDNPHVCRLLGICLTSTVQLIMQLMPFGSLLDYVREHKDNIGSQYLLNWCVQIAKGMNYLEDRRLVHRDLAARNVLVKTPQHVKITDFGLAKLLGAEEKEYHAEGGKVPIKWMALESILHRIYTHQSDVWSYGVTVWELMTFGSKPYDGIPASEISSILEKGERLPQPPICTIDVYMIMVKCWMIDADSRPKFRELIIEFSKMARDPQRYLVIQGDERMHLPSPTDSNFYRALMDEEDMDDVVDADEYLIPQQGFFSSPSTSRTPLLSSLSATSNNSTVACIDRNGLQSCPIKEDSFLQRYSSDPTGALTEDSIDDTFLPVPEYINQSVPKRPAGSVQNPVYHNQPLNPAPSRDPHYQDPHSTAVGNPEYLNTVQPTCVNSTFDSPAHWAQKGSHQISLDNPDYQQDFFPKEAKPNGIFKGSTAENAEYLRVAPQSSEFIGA

COc1cc(N2CCC(N3CCNCC3)CC2)ccc1Nc1ncc(Cl)c(Nc2ccccc2P(C)(C)=O)n1 [Compound A1-4, (2-((5-Chloro-2-((2-methoxy-4-(4-(piperazin-1-yl)piperidin-1-yl)phenyl)amino)pyrimidin-4-yl)amino)phenyl)dimethyl phosphorus oxide]
GI50 [1]: > 300 nM | GI50 [2]: > 300 nM

COc1cc(N2CCC(N3CCN(CCCCCCCOC4CN(c5cccc6c5C(=O)N(C5CCC(=O)NC5=O)C6=O)C4)CC3)CC2)ccc1Nc1ncc(Cl)c(Nc2ccccc2P(C)(C)=O)n1 (stereo not shown) [Compound C150, 4-(3-((7-(4-(1-(4-((5-chloro-4-((2-(dimethylphosphoryl)phenyl)amino)pyrimidin-2-yl)amino)-3-methoxyphenyl)piperidin-4-yl)piperazin-1-yl)heptyl)oxy)azetidin-1-yl)-2-(2,6-dioxopiperidin-3-yl)isoindoline-1,3-dione]
GI50 [2]: > 300 nM

COc1cc(N2CCC(N3CCN(CCCCCn4cc(-c5cccc6c5CN(C5CCC(=O)NC5=O)C6=O)cn4)CC3)CC2)ccc1Nc1ncc(Cl)c(Nc2ccccc2P(C)(C)=O)n1 (stereo not shown) [Compound C162, 3-(4-(1-(5-(4-(1-(4-((5-chloro-4-((2-(dimethylphosphoryl)phenyl)amino)pyrimidin-2-yl)amino)-3-methoxyphenyl)piperidin-4-yl)piperazin-1-yl)pentyl)-1H-pyrazol-4-yl)-1-oxoisoindolin-2-yl)piperidine-2,6-dione]
GI50 [1]: > 300 nM | GI50 [2]: > 300 nM

COc1cc(N2CCC(N3CCN(CCCCCC#Cc4c(F)ccc5c4CN(C4CCC(=O)NC4=O)C5=O)CC3)CC2)ccc1Nc1ncc(Cl)c(Nc2ccccc2P(C)(C)=O)n1 (stereo not shown) [Compound C166, 3-(4-(7-(4-(1-(4-((5-chloro-4-((2-(dimethylphosphoryl)phenyl)amino)pyrimidin-2-yl)amino)-3-methoxyphenyl)piperidin-4-yl)piperazin-1-yl)hept-1-yn-1-yl)-5-fluoro-1-oxoisoindolin-2-yl)piperidine-2,6-dione]
GI50 [1]: 1 to 100 nM | GI50 [2]: 101 to 200 nM

COc1cc(N2CCC3(CCN(CCOCC#Cc4cccc5c4CN(C4CCC(=O)NC4=O)C5=O)CC3)CC2)c(C)cc1Nc1ncc(Br)c(Nc2ccc3nccnc3c2P(C)(C)=O)n1 (stereo not shown) [Compound C174, 3-(4-(3-(2-(9-(4-((5-bromo-4-((5-(dimethylphosphoryl)quinoxalin-6-yl)amino)pyrimidin-2-yl)amino)-5-methoxy-2-methylphenyl)-3,9-diazaspiro[5.5]undecan-3-yl)ethoxy)prop-1-yn-1-yl)-1-oxoisoindolin-2-yl)piperidine-2,6-dione]
GI50 [1]: 1 to 100 nM | GI50 [2]: 1 to 100 nM

COc1cc(N2CCC(N3CCN(CCCc4ccc(-c5ccc6c(c5)CN(C5CCC(=O)NC5=O)C6=O)cc4)CC3)CC2)ccc1Nc1ncc(Cl)c(Nc2ccccc2P(C)(C)=O)n1 (stereo not shown) [Compound C235, 3-(5-(4-(3-(4-(1-(4-((5-chloro-4-((2-(dimethylphosphoryl)phenyl)amino)pyrimidin-2-yl)amino)-3-methoxyphenyl)piperidin-4-yl)piperazin-1-yl)propyl)phenyl)-1-oxoisoindolin-2-yl)piperidine-2,6-dione]
GI50 [1]: 1 to 100 nM | GI50 [2]: 1 to 100 nM

COc1cc(N2CCC(N3CCN(CCCCCC#Cc4ccc(F)c5c4CN(C4CCC(=O)NC4=O)C5=O)CC3)CC2)ccc1Nc1ncc(Cl)c(Nc2ccccc2P(C)(C)=O)n1 (stereo not shown) [Compound C243, 3-(4-(7-(4-(1-(4-((5-chloro-4-((2-(dimethylphosphoryl)phenyl)amino)pyrimidin-2-yl)amino)-3-methoxyphenyl)piperidin-4-yl)piperazin-1-yl)hept-1-yn-1-yl)-7-fluoro-1-oxoisoindolin-2-yl)piperidine-2,6-dione]
GI50 [1]: 1 to 100 nM

COc1cc(N2CCC(N3CCN(CCCCCCCc4cccc5c4CN(C4CCC(=O)NC4=O)C5=O)CC3)CC2)ccc1Nc1ncc(Cl)c(Nc2ccccc2P(C)(C)=O)n1 (stereo not shown) [Compound C245, 3-(4-(7-(4-(1-(4-((5-chloro-4-((2-(dimethylphosphoryl)phenyl)amino)pyrimidin-2-yl)amino)-3-methoxyphenyl)piperidin-4-yl)piperazin-1-yl)heptyl)-1-oxoisoindolin-2-yl)piperidine-2,6-dione]
GI50 [1]: 1 to 100 nM

COc1cc(N2CCC(N3CCN(CCCC#Cc4cc(C#N)cc5c4CN(C4CCC(=O)NC4=O)C5=O)CC3)CC2)ccc1Nc1ncc(Cl)c(Nc2ccccc2P(C)(C)=O)n1 (stereo not shown) [Compound C258, 7-(5-(4-(1-(4-((5-chloro-4-((2-(dimethylphosphoryl)phenyl)amino)pyrimidin-2-yl)amino)-3-methoxyphenyl)piperidin-4-yl)piperazin-1-yl)pent-1-yn-1-yl)-2-(2,6-dioxopiperidin-3-yl)-3-oxoisoindoline-5-carbonitrile]
GI50 [1]: 1 to 100 nM

COc1cc(N2CCC(N3CCN(CCCCC#Cc4cc(C#N)cc5c4CN(C4CCC(=O)NC4=O)C5=O)CC3)CC2)ccc1Nc1ncc(Cl)c(Nc2ccccc2P(C)(C)=O)n1 (stereo not shown) [Compound C259, 7-(6-(4-(1-(4-((5-chloro-4-((2-(dimethylphosphoryl)phenyl)amino)pyrimidin-2-yl)amino)-3-methoxyphenyl)piperidin-4-yl)piperazin-1-yl)hex-1-yn-1-yl)-2-(2,6-dioxopiperidin-3-yl)-3-oxoisoindoline-5-carbonitrile]
GI50 [1]: 1 to 100 nM

COc1cc(N2CCC(N3CCN(CCCCCC#Cc4cc(C(F)(F)F)cc5c4CN(C4CCC(=O)NC4=O)C5=O)CC3)CC2)ccc1Nc1ncc(Cl)c(Nc2ccccc2P(C)(C)=O)n1 (stereo not shown) [Compound C267, 3-(4-(7-(4-(1-(4-((5-chloro-4-((2-(dimethylphosphoryl)phenyl)amino)pyrimidin-2-yl)amino)-3-methoxyphenyl)piperidin-4-yl)piperazin-1-yl)hept-1-yn-1-yl)-1-oxo-6-(trifluoromethyl)isoindolin-2-yl)piperidine-2,6-dione]
GI50 [1]: 1 to 100 nM

COc1cc(N2CCC(N3CCN(CCCCC#Cc4cc(C(F)(F)F)cc5c4CN(C4CCC(=O)NC4=O)C5=O)CC3)CC2)ccc1Nc1ncc(Cl)c(Nc2ccccc2P(C)(C)=O)n1 (stereo not shown) [Compound C268, 3-(4-(6-(4-(1-(4-((5-chloro-4-((2-(dimethylphosphoryl)phenyl)amino)pyrimidin-2-yl)amino)-3-methoxyphenyl)piperidin-4-yl)piperazin-1-yl)hex-1-yn-1-yl)-1-oxo-6-(trifluoromethyl)isoindolin-2-yl)piperidine-2,6-dione]
GI50 [1]: 1 to 100 nM

COc1cc(N2CCC(N3CCN(CCCC#Cc4cc(C(F)(F)F)cc5c4CN(C4CCC(=O)NC4=O)C5=O)CC3)CC2)ccc1Nc1ncc(Cl)c(Nc2ccccc2P(C)(C)=O)n1 (stereo not shown) [Compound C269, 3-(4-(5-(4-(1-(4-((5-chloro-4-((2-(dimethylphosphoryl)phenyl)amino)pyrimidin-2-yl)amino)-3-methoxyphenyl)piperidin-4-yl)piperazin-1-yl)pent-1-yn-1-yl)-1-oxo-6-(trifluoromethyl)isoindolin-2-yl)piperidine-2,6-dione]
GI50 [1]: 1 to 100 nM

COc1cc(N2CCC(N3CCN(CCCCCc4cccc5c4CN(C4CCC(=O)NC4=O)C5=O)CC3)CC2)c(C)cc1Nc1ncc(Br)c(Nc2ccc3nccnc3c2P(C)(C)=O)n1 (stereo not shown) [Compound C285, 3-(4-(5-(4-(1-(4-((5-bromo-4-((5-(dimethylphosphoryl)quinoxalin-6-yl)amino)pyrimidin-2-yl)amino)-5-methoxy-2-methylphenyl)piperidin-4-yl)piperazin-1-yl)pentyl)-1-oxoisoindolin-2-yl)piperidine-2,6-dione]
GI50 [1]: 1 to 100 nM

COc1cc(N2CCC(N3CCN(CCCCCCc4cccc5c4CN(C4CCC(=O)NC4=O)C5=O)CC3)CC2)c(C)cc1Nc1ncc(Br)c(Nc2ccc3nccnc3c2P(C)(C)=O)n1 (stereo not shown) [Compound C286, 3-(4-(6-(4-(1-(4-((5-bromo-4-((5-(dimethylphosphoryl)quinoxalin-6-yl)amino)pyrimidin-2-yl)amino)-5-methoxy-2-methylphenyl)piperidin-4-yl)piperazin-1-yl)hexyl)-1-oxoisoindolin-2-yl)piperidine-2,6-dione]
GI50 [1]: 1 to 100 nM

COc1cc(N2CCC(N3CCN(CCCCc4cccc5c4CN(C4CCC(=O)NC4=O)C5=O)CC3)CC2)c(C)cc1Nc1ncc(Br)c(Nc2ccc3nccnc3c2P(C)(C)=O)n1 (stereo not shown) [Compound C301, 3-(4-(4-(4-(1-(4-((5-bromo-4-((5-(dimethylphosphoryl)quinoxalin-6-yl)amino)pyrimidin-2-yl)amino)-5-methoxy-2-methylphenyl)piperidin-4-yl)piperazin-1-yl)butyl)-1-oxoisoindolin-2-yl)piperidine-2,6-dione]
GI50 [1]: 1 to 100 nM

COc1cc(N2CCC3(CCN(CCCCc4cccc5c4CN(C4CCC(=O)NC4=O)C5=O)CC3)CC2)c(C)cc1Nc1ncc(Br)c(Nc2ccc3nccnc3c2P(C)(C)=O)n1 (stereo not shown) [Compound C302, 3-(4-(4-(9-(4-((5-bromo-4-((5-(dimethylphosphoryl)quinoxalin-6-yl)amino)pyrimidin-2-yl)amino)-5-methoxy-2-methylphenyl)-3,9-diazaspiro[5.5]undecan-3-yl)butyl)-1-oxoisoindolin-2-yl)piperidine-2,6-dione]
GI50 [1]: 1 to 100 nM
